Patent US20220380318A1, “SUBSTITUTED SULFONYL AMIDES FOR CONTROLLING ANIMAL PESTS” (Bayer Aktiengesellschaft, priority 2019, published 2022)

Assays:
Format in all cases: in vivo
Heterodera pallida = Heterodera pallida - soil mixing test (HETDPA); conditions: Globodera pallida, 1008 h, cysts on potato roots after six weeks, Abbott formula, read-out: % Efficacy
Method: Heterodera pallida-Soil Mixing Test ([…]) Solvent: 4 parts by weight of acetone Emulsifier: 1 part by weight of alkylaryl polyglycol ether To produce a suitable preparation of active ingredient, 1 part by weight of active ingredient is mixed with the stated amounts of solvent and emulsifier, and the concentrate is diluted with water to the desired concentration. This active ingredient formulation is mixed with soil (loamy sand). The stated concentration refers to the amount of active ingredient per volume unit of soil (ppm=mg/l). 40 cysts of the white potato nematode (Heterodera pallida, 250-275 larvae/cysts) are introduced into 500 ml of this active ingredient soil and mixed. The mixture is introduced into pots and planted in each case with a one-week-old potato seedling (Solanum tuberosum). After six weeks, the potato roots are checked for cysts and the average number per pot is calculated as efficacy by the Abbott formula: [formula] B=treated plants K=untreated control plants

Meloidogyne incognita [1] = assay: Meloidogyne incognita test (MELGIN), comparison with prior art; conditions: 504 h, after 21 days
Method: (§1) Meloidogyne incognita Test (MELGIN) Solvent: 7 parts by weight of dimethylformamide Emulsifier: 2.5 parts by weight of alkylaryl polyglycol ether To produce a suitable active ingredient formulation, 1 part by weight of active ingredient is mixed with the specified amounts of solvent and emulsifier, and the concentrate is diluted with water to the desired concentration, it being necessary to take account of the volume of soil which is drenched. It should be ensured that a concentration of 20 ppm of emulsifier in the soil is not exceeded. To produce further test concentrations, water is used for dilution. Pots filled with soil (loamy sand) are watered with the active ingredient solution. An egg/larvae suspension of the southern root-knot nematode (Meloidogyne incognita) is added, lettuce seeds are scattered over the surface of the soil, and they are covered over with quartz sand. The lettuce seeds germinate and the plants develop. The galls develop on the roots. After 21 days, the nematicidal efficacy in % is determined by the formation of galls. 100% means that no galls have been found; 0% means that the number of galls on the treated plants corresponds to the untreated control.

Meloidogyne incognita [2] = assay: Meloidogyne incognita test (soil drench, gall formation after 21 days); conditions: 504 h, lettuce, read-out: nematicidal efficacy in % (formation of galls); for pest or weed control at 1 ppm: application rate 1 ppm; for pest or weed control at 0.125 ppm: application rate 0.125 ppm; for pest or weed control at 0.25 ppm: application rate 0.25 ppm
Method: as §1, with “Test” for “Test (MELGIN)”

Meloidogyne incognita [3] = assay: Meloidogyne incognita test (sand, acetone formulation, gall formation after 14 days); conditions: 336 h, application rate 4 ppm, lettuce in sand, read-out: nematicidal efficacy in % (formation of galls)
Method: Meloidouyne incognita Test Solvent: 125.0 parts by weight of acetone To produce an appropriate active ingredient formulation, 1 part by weight of active ingredient is mixed with the stated amount of solvent and the concentrate is diluted to the desired concentration with water. Vessels are filled with sand, active ingredient solution, an egg/larvae suspension of the southern root-knot nematode (Meloidogyne incognita) and lettuce seeds. The lettuce seeds germinate and the plants develop. The galls develop on the roots. After 14 days, the nematicidal efficacy in % is determined by the formation of galls. 100% means that no galls were found; 0% means that the number of galls on the treated plants corresponds to the untreated control.

SMILES | pest or weed control at 1 ppm (Meloidogyne incognita [2]) | pest or weed control at 4 ppm (Meloidogyne incognita [3]) | pest or weed control at 0.125 ppm (Meloidogyne incognita [2]) | pest or weed control at 0.25 ppm (Meloidogyne incognita [2]) | other results
COc1ccc(Cl)c(S(=O)(=O)NC(=O)c2nc(Cl)n([C@@H]3C[C@H]3C(F)(F)F)c2Cl)c1 [Ex. I-470, reference compound] |  |  |  |  | Emax at 0.25 ppm (Heterodera pallida): 0%; Emax at 0.5 ppm (Heterodera pallida): 0%; Emax at 1 ppm (Heterodera pallida): 70%; Emax at 0.015625 ppm (Meloidogyne incognita [1]; read-out: % Efficacy): 0%; nematicidal efficacy (% gall reduction) at 0.03125 ppm (Meloidogyne incognita [1]): 48%
O=C(NS(=O)(=O)c1ccccc1Cl)c1nc(Br)n([C@@H]2C[C@H]2C(F)(F)F)c1Cl (racemic) [I-13] | 80% | 100% |  |  | nematicidal efficacy (% gall reduction) at 0.5 ppm (Meloidogyne incognita [1]): 70%
COc1ccc(Br)c(S(=O)(=O)NC(=O)c2nc(Br)n([C@H]3C[C@@H]3C(F)(F)F)c2Br)c1 (racemic) [I-07] | 100% | 100% | 100% | 100% | Emax at 0.03125 ppm (Meloidogyne incognita [1]; read-out: % Efficacy): 90%; nematicidal efficacy (% gall reduction) at 0.0625 ppm (Meloidogyne incognita [1]; 0.0625 ppm): 100%; nematicidal efficacy (% gall reduction) at 0.125 ppm (Meloidogyne incognita [1]): 100%
CCOc1ccc(Cl)c(S(=O)(=O)NC(=O)c2nc(Br)n([C@H]3C[C@@H]3C(F)(F)F)c2Br)c1 (racemic) [I-09] | 100% | 100% | 90% | 100% | 
O=C(NS(=O)(=O)c1cc(OCC(F)F)ccc1Cl)c1nc(Cl)n([C@@H]2C[C@H]2C(F)(F)F)c1Br (racemic) [I-11] |  | 100% | 98% |  | 
O=C(NS(=O)(=O)c1cc(OCC(F)F)ccc1Cl)c1nc(Br)n([C@@H]2C[C@H]2C(F)(F)F)c1Br (racemic) [I-10] |  | 100% | 100% |  | 
O=C(NS(=O)(=O)c1ccccc1Cl)c1nc(Br)n(CCC(F)(F)F)c1Cl [Ex. I-440, reference compound] |  |  |  |  | nematicidal efficacy (% gall reduction) at 0.125 ppm (Meloidogyne incognita [1]): 0%; nematicidal efficacy (% gall reduction) at 0.5 ppm (Meloidogyne incognita [1]): 0%
Cc1ccccc1S(=O)(=O)NC(=O)c1nc(Cl)n([C@H]2C[C@@H]2C(F)(F)F)c1Br (racemic) [I-03] | 100% | 100% | 90% | 100% | 
COc1ccc(Br)c(S(=O)(=O)NC(=O)c2nc(Cl)n([C@H]3C[C@@H]3C(F)(F)F)c2Br)c1 (racemic) [I-05] | 100% | 100% | 100% | 100% | 
O=C(NS(=O)(=O)c1cc(Cl)ccc1Cl)c1nc(Cl)n([C@H]2C[C@@H]2C(F)(F)F)c1Br (racemic) [I-02] | 100% | 100% | 90% | 90% | 
COc1ccc(Br)c(S(=O)(=O)NC(=O)c2nc(Cl)n([C@@H]3C[C@H]3C(F)(F)F)c2Cl)c1 [Ex. I-465, reference compound] |  |  |  |  | Emax at 0.03125 ppm (Meloidogyne incognita [1]; read-out: % Efficacy): 0%; Emax at 0.0625 ppm (Meloidogyne incognita [1]; 0.0625 ppm, read-out: % Efficacy): 25%; nematicidal efficacy (% gall reduction) at 0.125 ppm (Meloidogyne incognita [1]): 95%
CCOc1ccc(Cl)c(S(=O)(=O)NC(=O)c2nc(Cl)n([C@H]3C[C@@H]3C(F)(F)F)c2Br)c1 (racemic) [I-04] | 100% | 100% | 90% | 100% | nematicidal efficacy (% gall reduction) at 0.03125 ppm (Meloidogyne incognita [1]): 97%
COc1ccc(Cl)c(S(=O)(=O)NC(=O)c2nc(Br)n([C@H]3C[C@@H]3C(F)(F)F)c2Cl)c1 (racemic) [I-12] |  | 100% | 100% |  | nematicidal efficacy (% gall reduction) at 0.125 ppm (Meloidogyne incognita [1]): 100%
COc1ccc(Cl)c(S(=O)(=O)NC(=O)c2nc(Br)n([C@H]3C[C@@H]3C(F)(F)F)c2Br)c1 (racemic) [I-06] | 100% | 100% | 100% | 100% | Emax at 0.015625 ppm (Meloidogyne incognita [1]; read-out: % Efficacy): 65%; nematicidal efficacy (% gall reduction) at 0.03125 ppm (Meloidogyne incognita [1]): 92.5%
COc1ccc(Cl)c(S(=O)(=O)NC(=O)c2nc(Cl)n([C@H]3C[C@@H]3C(F)(F)F)c2Br)c1 (racemic) [I-01] | 100% | 100% | 90% | 97% | Emax at 0.25 ppm (Heterodera pallida): 75%; Emax at 0.5 ppm (Heterodera pallida): 90%; Emax at 1 ppm (Heterodera pallida): 100%; Emax at 0.015625 ppm (Meloidogyne incognita [1]; read-out: % Efficacy): 58.3%; nematicidal efficacy (% gall reduction) at 0.03125 ppm (Meloidogyne incognita [1]): 95%
CCOc1ccc(Cl)c(S(=O)(=O)NC(=O)c2nc(Cl)n([C@@H]3C[C@H]3C(F)(F)F)c2Cl)c1 [Ex. I-459, reference compound] |  |  |  |  | nematicidal efficacy (% gall reduction) at 0.03125 ppm (Meloidogyne incognita [1]): 10%
Cc1ccccc1S(=O)(=O)NC(=O)c1nc(Br)n([C@H]2C[C@@H]2C(F)(F)F)c1Br (racemic) [I-08] | 100% | 100% |  | 100% | 
